US20090312414A1, “Treatment Of Lower Urinary Tract Dysfunction With CB2-Receptor-Selective Agonists” (priority 2008, published 2009)

Tested on: conscious rats treated with cyclophosphamide
Assay: Cystometry in cyclophosphamide-induced model of IC/PBS
Type: in vivo, rat
Conditions: 10 mg/kg IP; for Bladder capacity (BC): CYP-treated rats
Text: This study involved the determination of the acute effect of the compound of Formula I on bladder function in conscious rats in the cyclophosphamide-induced model of interstitial cystitis/painful bladder syndrome (“IC/PBS”) using cystometry. The clinical use of cyclophosphamide (“CYP”), a chemotherapy drug that is given as a treatment for many types of cancer, can cause inflammation of the bladder lining, inducing acute hemorrhagic cystitis or chronic cystitis, and result in side effects in the bladder that can be seen in patients with IC/PBS. (Levine L A, Richie J P. Urological complications of cyclophosphamide. J Urol. 1989; 141:1063; Stillwell T J, Benson R C. Cyclophosphamide-induced cystitis. A review of 100 patients. Cancer. 1988; 61:451). The cystitis is not caused by CYP itself, but to acrolein, a toxic CYP metabolite produced by microsomal metabolism that is eliminated by the bladder (Levine L A, Richie J P. Urological complications of cyclophosphamide. J Urol. 1989; 141:1063). In rats, IP administration of CYP induces bladder inflammation and disrupts the urothelial lining, increasing afferent nerve sensitivity and leading to bladder overactivity. Bladder weight is increased due to the inflammation, and bladder capacity is decreased (Corrow K A, Vizzard M A. Phosphorylation of extracellular signal-regulated kinases in urinary bladder in rats with cyclophosphamide-induced cystitis. Am J Physiol. 2007; 293:R125; Lecci A, Birder L A, Meini S, Catalioto R-M, Tramontana M, Giuliani S, Criscuoli M, Maggi C A. Pharmacological evaluation of the role of cyclooxygenase isoenzymes on the micturition reflex following experimental cystitis in rats. Br J Pharmacol. 2000; 130:331).
Male Sprague Dawley rats, weighing 250 g, were maintained under standard laboratory conditions with a 12:12 light/dark cycle and free access to food pellets and water. For surgical procedures, the rats were anesthetized with IP administration of Equinthensin solution (3 ml/kg).
The bladder was exposed via a mid-line incision of the lower abdomen, and the bladder was freed from adhering tissues and emptied. A saline-filled polyethylene catheter (0.58 mm ID and 0.96 mm OD) was implanted in the bladder via an incision at the bladder dome and sutured in place with silk thread. For IV compound administration, a similar PE catheter filled with saline containing sodium heparin (40 IU/ml) was inserted into a jugular vein. The cannulas were exteriorized through a subcutaneous tunnel in the retroscapular area and are connected with a plastic adaptor in order to avoid removal by the animal. […]
Bladder capacity (“BC”) and micturition pressure (“MP”) were the urodynamic parameters evaluated from the cystometrogram. […]

Structure (SMILES): CCCCCCC(C)(C)c1cc(O)c([C@H]2CC(=O)[C@H]3C[C@@H]2C3(C)C)c(OC(=O)/C=C/C(=O)O)c1 [Formula I]
- Reduction of BC compared to pre-CYP treatment levels (26 hr time point): 29%
- Reduction of BC compared to pre-CYP treatment levels (28 hr time point): 21%
- Bladder capacity (BC) (2 hr post treatment (26 hr time point)): 0.57 ± 0.06 mL
- Bladder capacity (BC) (4 h after administration (28 hr time point)): 0.63 ± 0.09 mL
